The text below walks through data of patent US5418218A, “Histidyl-proline diketopiperazine (cyclo his-pro) a cns-active pharmacologic agent” (The University of Maryland at Baltimore, priority 1992, dated 1995).

A value given as a limit tells only on which side of the number the result lay.

Data set [1] is described as follows: Weight loss activity of cyclic dipeptides. The conditions noted are these: in vivo. An excerpt:
As to the active ingredient, while the effect as to weight loss appears to be stereospecific, it is contemplated that alterations can be made to the compound to enhance the activities thereof contemplated to fall within the scope of the instant invention.

The nature of data set [2]: Intracerebroventricular administration / lateral ventricle infusion, appetite and weight gain. The class given is in vivo, rodents. The settings on record: administered IVT acutely.
The nature of data set [3]: Oral administration to rats, appearance in plasma. The settings on record: administered orally to rats.
The nature of data set [4]: Intraperitoneal cyclo (His-Pro), inhibition of appetite in animals receiving liquid diets. Format: in vivo. The settings on record: intraperitoneally, 20 mg/kg/day for 24 days.
A short description of data set [5]: Stability in vivo and in drinking water. An excerpt:
While it is known that the pyroglutamic acid residue often confers stability on a peptide carrying the same at a terminus, such as TRH, the precursor of cyclo (His-Pro), the pyroglutamic acid residue is not present in cyclo His-Pro.
The carrier(s) must be "acceptable" in the sense of being compatible with other ingredients of the formulation and not deleterious to the recipient thereof. […] Formulations suitable for administration conveniently comprise sterile aqueous solutions of the active chemical, which may be conveniently prepared by mixing the active chemical with water, and after rendering said solution sterile it may be presented in sealed containers.

The subject of data set [6] is pancreatic or intestinal enzymes. Description: Resistance to proteolytic digestion.
The conditions of data set [7]: cited from earlier work.
The nature of data set [8]: Oral cyclo (His-Pro) in drinking water, weight gain in rodents.
Data set [9] in a line: Passage of the blood-brain barrier. The class given is in vivo. The settings on record: non-CNS administration. As for the experimental part:
Thus, it was determined in the development of the instant invention that cyclo (His-Pro), unlike the vast majority of biologics that are susceptible to degradation in the gastrointestinal tract, can be administered by those routes normally employed for drug administration, such as intramuscularly and intravenously, but also that cyclo (His-Pro) can be administered orally. […] Although not an absolute barrier of the passage of compounds into the brain, many compounds cross very slowly if at all to any effective extent.

[10] abbreviates: oral in drinking water, versus control animals, P<0.02.

Turning to `O=C1[C@@H]2CCCN2C(=O)[C@@H]2CCCN12` [cyclo (Pro-Pro)], the weight loss activity entry in data set [1] is listed as “did not provide weight loss activity”.

Consider `O=C(O)CCC1NC(=O)C(Cc2ccccc2)NC1=O` (stereo not shown) [cyclo (Glu-Phe)], for which, in data set [1], the weight loss activity entry is reported as “did not provide weight loss activity”.

On to `O=C1N[C@@H](Cc2cnc[nH]2)C(=O)N2CCC[C@@H]12` [cyclo (His-Pro), L-histidyl-L-proline diketopiperazine], for which the duration of action entry in data set [2] was “about 12 hours”. Further, the “form appearing in plasma” value in data set [3] is on record as “completely unaltered biochemically”. The inhibition of appetite result in data set [4] is listed as “can induce inhibition of appetite”. For the same compound, the “effectiveness after addition to water” value in data set [5] (added to water, such as drinking water from the tap) was “retain effectiveness”. For the same compound, in [5] (in vivo), the “enzymatic degradation in vivo” value is recorded as “resistant to enzymatic degradation in vivo” and the half-life result is “long half-life”. Further, in data set [6], the “resistance to proteolytic digestion” value was “uniquely resistant to proteolytic digestion”. In addition, the “duration of appetite reduction” value in [7] (after intracerebroventricular administration to rodents) was no more than 12 h. Also, the “duration of inhibition of weight gain” value in [7] (infused into the lateral ventricle) is recorded as 2 weeks. In addition, in data set [8] (experimental studies), the “cause of weight loss (satiety versus illness)” value is “due to induction of satiety, not of nausea, vomiting or illness”. In data set [8] (oral in drinking water, 1 or 2 mg/kg/day for 14 to 18 days, controls gained from a mean of 248 to 396 gms), the “mean body weight reached by experimental animals” value came out at 384 gms. In data set [8] (setting [10]), the “inhibition of weight gain” value came out at 12 grams and the “inhibition of weight gain (minus %)” value worked out at 8.1%. Also, in data set [9], the blood-brain barrier passage result is “crosses the blood-brain barrier to achieve effective concentrations in a short period of time”.
